Legend:
[1] = system: PANC-1; experiment: Anticancer activity against human PANC1 cells; format: functional, cell-based
[2] = system: PANC-1; experiment: Cytotoxicity against human PANC1 cells assessed as decrease in cell viability after 72 hrs by MTT assay; format: functional, cell-based; conditions: PANC-1, 72 h

`COC(=O)c1ccc2c(c1)nc(NC(=O)c1ccccc1)n2CCCc1ccccc1` showed an IC50 [1] of 5 µM.

With `CCN(CC)CCNC(=O)c1ccc(NCCN2C(=O)c3ccccc3C2=O)cc1` the IC50 [2] was 5 µM.

From ChEMBL document CHEMBL4396911, “Recent progress in histone methyltransferase (G9a) inhibitors as anticancer agents” (Eur J Med Chem, 2019)
